pIC50: −log10 of the molar value. Where two headings read alike, the source gives them in different places.
Experiments:
[1] = biological target: T1, human NPY Y5 receptor (Homo sapiens, UniProt Q15761); test: NPY binding inhibition test ([125I]peptideYY binding to membranes of NPY Y5 receptor expressing cells); conditions: 25° C., 2 hours, membrane of NPY Y5 receptor expressing cells, read-out: IC50 against specific peptideYY binding
T1 construct: expressed in transfected cells; host or cells: COS-7, CHO and LM(tk-) cells (membrane preparation)
T1 sequence (Q15761 1-445): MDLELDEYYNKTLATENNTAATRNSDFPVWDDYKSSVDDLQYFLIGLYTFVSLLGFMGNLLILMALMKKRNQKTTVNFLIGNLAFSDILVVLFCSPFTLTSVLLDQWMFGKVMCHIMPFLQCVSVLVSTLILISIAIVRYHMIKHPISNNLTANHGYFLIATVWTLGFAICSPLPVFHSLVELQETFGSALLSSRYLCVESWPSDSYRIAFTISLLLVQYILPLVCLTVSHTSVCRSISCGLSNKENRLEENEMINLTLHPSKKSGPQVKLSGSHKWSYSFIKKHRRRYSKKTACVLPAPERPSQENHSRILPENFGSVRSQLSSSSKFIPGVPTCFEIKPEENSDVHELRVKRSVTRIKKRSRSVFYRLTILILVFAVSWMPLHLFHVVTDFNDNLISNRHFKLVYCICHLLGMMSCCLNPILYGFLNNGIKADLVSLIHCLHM
From the text: cDNA sequence encoding human NPY Y5 receptor (c.f. International patent publication number WO96/16542) was cloned into expression vectors pcDNA3, pRc/RSV (made by Invitrogen Inc.) and pCI-neo (made by Promega Inc.). The expression vectors thus obtained were transfected to host cells COS-7, CHO and LM(tk−) (American Type Culture Collection) by cationic lipid method (Proceedings of the National Academy of Sciences of the United States of America, vol. 84: p. 7413(1987)) to give NPY Y5 receptor expression cells.
A membrane sample prepared from the cells which expressed NPY Y5 receptor was incubated together with a test compound and [^125I]peptideYY (made by NEN) (20,000 cpm) in an assay buffer (25 mM Tris buffer, pH7.4, containing 10 mM magnesium chloride, 1 mM phenylmethylsulfonyl fluoride, 0.1% bacitracin and 0.5% bovine serum albumin) at 25° C. for 2 hours, then filtered through a glass filter GF/C and washed with 5 mM Tris buffer (pH7.4) containing 0.3% BSA. The radio activity of the cake on the glass filter was measured. Non-specific binding was measured in the presence of 1 μM peptide YY, and a 50% Inhibitory Concentration (IC50) of the test compound against specific peptideYY binding was determined (Endocrinology, vol. 131: p. 2090(1992)).

[2] = Brain/cerebrospinal fluid transport test; assay type: in vivo; conditions: male SD rats, 2 hours after oral administration (10 mg/kg); for concentration at 2 h: rat
Experimental: A test compound was orally or intravenously administered to male SD rats (7–10 weeks old, 200–400 g), and whole blood was collected from the abdominal aorta using a heparin-treated syringe under the ether anesthesia at designated time. Then, the head skin was cut out, and a dental 30 G needle was inserted between the cervical vertebrae, and it was further inserted into the cavum subarachnoideale. After 50 to 100 μL cerebrospinal fluid had been collected by a 1 ml-syringe through a tube connected to dental 30 G needle, the brain was extracted. The blood sample was centrifuged (4° C., 6,000 r.p.m., 10 minutes) to obtain the plasma. 3-fold amount of ethanol containing an internal standard was added, and stirred. The brain sample was homogenized after addition of 2 ml water, an aliquot of the homogenate was taken and 3-fold amount of ethanol containing an internal standard was added, and stirred. The cerebrospinal fluid was stirred after adding 3-fold amount of ethanol containing an internal standard. These samples were allowed to stand at −20° C. for 20 minutes, and then centrifuged (4° C., 12,000 g, 10 minutes). The supernatant was analyzed by LC/MS/MS, and the concentration of the test compound in the plasma, brain, and cerebrospinal fluid were measured by the method using a relative calibration curve.

[3] = Pharmacokinetics test (plasma concentration by LC/MS/MS); assay type: in vivo; conditions: rat, male SD rats, overnight fasting, oral or intravenous administration
Experimental: A test compound was orally or intravenously administered to male SD rats (7–10 weeks old, 200–400 g) under the overnight fasting condition. About 100 μL of blood was collected from the tail vein by heparinized capillary at designated time. The blood was centrifuged (4° C., 6,000 r.p.m., 10 minutes) to obtain the plasma. 3-fold amount of ethanol containing an internal standard was added to plasma. The mixture was stirred, allowed to stand at −20° C. for 20 minutes, and then centrifuged (4° C., 10,000 r.p.m., 10 minutes). The supernatant was analyzed by LC/MS/MS, and the concentration of the test compound in the plasma was measured using a relative calibration curve.

## CCc1cc(C2=N[C@@](c3ccc(F)cc3)(c3ccc(F)nc3)[C@H](C)N2)cn(C)c1=O [Example 1-39, 3-ethyl-5-[(4S,5S)-4-(4-fluorophenyl)-4-(6-fluoro-3-pyridyl)-5-methyl-2-imidazolin-2-yl]-1-methyl-2-pyridone]
[1]
  pIC50: 8.59

## CCn1cc(C2=NC(c3ccc(Cl)cc3)(c3ccnc(F)c3)[C@H](C)N2)ccc1=O (single isomer, unassigned) [Example 1-23]
[1]
  pIC50: 8.55

## C[C@@H]1NC(c2ccc(=O)n(C(F)F)c2)=NC1(c1ccc(Cl)cc1)c1ccnc(F)c1 (single isomer, unassigned) [Example 1-21]
[1]
  pIC50: 8.57

## C[C@@H]1NC(c2ccc(=O)n(C(F)F)c2)=NC1(c1ccc(F)cc1)c1ccc(C(F)F)nc1 (single isomer, unassigned) [Example 1-42]
[1]
  pIC50: 8.55

## COn1cc(C2=N[C@](c3ccc(F)cc3)(c3ccc(C(F)(F)F)nc3)[C@H](C)N2)ccc1=O [Example 1-53, 5-[(4R,5S)-4-(4-fluorophenyl)-5-methyl-4-(6-trifluoromethyl-3-pyridyl)-2-imidazolin-2-yl]-1-methoxy-2-pyridone]
[1]
  pIC50: 8.60

## CCn1cc(C2=NC(c3ccc(F)cc3)(c3ccc(C(F)(F)F)nc3)[C@H](C)N2)cc(F)c1=O (single isomer, unassigned) [Example 1-29]
[1]
  pIC50: 8.54

## CCn1cc(C2=NC(c3ccc(F)cc3)(c3ccc(C(F)F)nc3)[C@H](C)N2)cc(F)c1=O (single isomer, unassigned) [Example 1-45]
[1]
  pIC50: 8.55

## CCc1cc(C2=N[C@@](c3ccc(F)cc3)(c3ccc(F)nc3)[C@H](C)N2)cn(C(F)F)c1=O [Example 1-70, 1-difluoromethyl-3-ethyl-5-[(4S,5S)-4-(4-fluorophenyl)-4-(6-fluoro-3-pyridyl)-5-methyl-2-imidazolin-2-yl]-2-pyridone]
[1]
  pIC50: 8.54

## CCn1cc(C2=NC(c3ccc(F)cc3)(c3ccc(C(F)(F)F)nc3)[C@H](C)N2)cc(Cl)c1=O (single isomer, unassigned) [Example 1-11]
[1]
  pIC50: 8.64

## CCn1cc(C2=N[C@@](c3ccc(F)cc3)(c3ccc(F)nc3)[C@H](C)N2)cc(F)c1=O [Example 1-25, 1-ethyl-3-fluoro-5-[(4S,5S)-4-(4-fluorophenyl)-4-(6-fluoro-3-pyridyl)-5-methyl-2-imidazolin-2-yl]-2-pyridone]
[1]
  pIC50: 8.54

## CCCn1cc(C2=NC(c3ccc(F)cc3)(c3ccc(C(F)(F)F)nc3)[C@H](C)N2)ccc1=O (single isomer, unassigned) [Example 1-9]
[1]
  pIC50: 8.82

## C[C@@H]1NC(c2ccc(=O)n(C(F)F)c2)=NC1(c1ccc(F)cc1)c1ccc(C(F)(F)F)nc1 (single isomer, unassigned) [Example 1-7]
[2]
  concentration in the brain: 2.48 nmol/g
[2]; cerebrospinal fluid, read-out: concentration in the cerebrospinal fluid
  concentration at 2 h: 0.15 µM
[2]; plasma, read-out: concentration in the plasma
  concentration at 2 h: 3.17 µM
[1]
  pIC50: 8.57
[3]
  bioavailability: 94%
  half-life: 8.5 h

## CCn1cc(C2=NC(c3ccc(F)cc3)(c3ccc(C(F)(F)F)nc3)[C@H](C)N2)ccc1=O (single isomer, unassigned) [Example 1-8]
[1]
  pIC50: 8.68

— US7138525B2, “N-substituted-2-oxodihydropyridine derivatives” (Banyu Pharmaceutical Co., Ltd., priority 2002, dated 2006)
